Patent US11932897B2, “Biosynthesis of curcuminoids in mammalian cells” (University of Kentucky Research Foundation, priority 2018, dated 2024)

Columns and labels:
[1] = system: reactive oxygen species (ROS) within cells; experiment: CellROX Deep Red assay of cellular oxidative stress after H2O2 treatment; format: cell-based; details: for effect on CellROX fluorescence / oxidation (in words): 1 mM H2O2 for 30 min, then CellROX Deep Red, transfected cells in substrate-supplemented media, or supplemented media alone
Protocol: Cells were exposed to 1 mM H2O2 for 30 min before incubation with CellROX Deep Red. Blank: untransfected cells. F: ferulic acid-supplemented media. P: p-courmaric acid-supplemented media. pGL3: luciferase-encoding plasmid.
Additionally, the antioxidant potential of heterologously produced curcuminoids was investigated using CellROX Deep Red (Invitrogen, Carlsbad, Calif.), a fluorogenic probe for cellular oxidative stress. The cell-permeable CellROX dye is non-fluorescent in its reduced state but becomes highly fluorescent upon oxidation by reactive oxygen species (ROS) within cells. Cells were treated with 1 mM H2O2 to induce oxidative stress and subsequently incubated with CellROX before quantifying the resulting fluorescence (FIG. 11).

[2] = system: radiation-induced oral mucositis; experiment: Syrian hamster model of radiation-induced oral mucositis; details: sustained presence of curcumin from in vivo biosynthesis, versus irradiated hamsters without treatment or with positive control; 60 Gy
Excerpt: Briefly, the hamster is anesthetized, the left cheek pouch is clamped between acrylic sheets to hold it in place, and each cheek pouch is exposed to 60 Gy total irradiation in a linear accelerator (LINAC). The use of the LINAC system provides gamma radiation exposure, is clinically relevant, and provides tight control of the radiation dose, reducing animal-to-animal exposure differences. For up to three weeks after irradiation, the hamsters is weighed daily and cheeks extracted to evaluate injury based on a well-established, validated scale (Table 2).
Equal numbers of male and female hamsters are randomly divided into groups (n=8). Negative controls comprise non-irradiated, non-treated; nonirradiated, treated; and irradiated, nontreated groups. […] The treatment groups are determined based on the curcuminoid production levels, bioavailability, and duration of production achievable in the in vivo systems described above. A preferred treatment is animals stably producing curcuminoids following AAV8-mediated transfection of liver and providing therapeutically relevant curcuminoid concentrations in circulation. The primary alternative is local AAV-mediated transfection of tissues in the cheek pouch. Another alternative approach is HEK293-ddCCM or HEK-CCM cells encapsulated in lysine/alginate spheres and implanted s.c. or i.p. in tissue cages.

[3] = cited from earlier work
[4] = in vivo; cited from earlier work

Compound | effect on CellROX fluorescence / oxidation (in words) [1] | reduction in CellROX fluorescence ([1]; cells producing CCM from ferulic acid (4CL1/DCS/CURS1), 1 mM H2O2 for 30 min before CellROX Deep Red) | severity and duration of OM [2] | half-life in plasma [3] | oral bioavailability [4]
O=C(O)/C=C/c1ccc(O)cc1 [p-coumaric acid] | Neither the presence of p-coumaric acid nor ferulic acid, nor transfection with pGL3 (encoding luciferase), had any effect | – | – | – | –
COc1cc(/C=C/C(=O)O)ccc1O [ferulic acid] | Neither the presence of p-coumaric acid nor ferulic acid, nor transfection with pGL3 (encoding luciferase), had any effect | – | – | – | –
COc1cc(/C=C/C(=O)CC(=O)/C=C/c2ccc(O)c(OC)c2)ccc1O [CCM, curcumin] | – | 37% | significantly reduces severity and duration of OM | relatively short | ~1%
